# Laboratory results: US5985908A, “MCBI analogs of CC-1065 and the duocarmycins” (The Scripps Research Institute, priority 1998, dated 1999)
# Tests used:
# [1] = tested on: w794 DNA (SV40 DNA fragment, 144 bp); conditions: cited from earlier work
# [2] = tested on: duplex DNA (w794, w836, c988, c820); assay: DNA alkylation selectivity within four 150 base-pair segments of duplex DNA; type: biochemical, SV40
# From the text: (§1) The DNA alkylation properties of the agents were examined within four 150 base-pair segments of duplex DNA for which comparative results are available for related agents. Four clones of phage M13mp10 were selected for study and contain the SV40 nucleosomal DNA inserts w794 (nucleotide no. 5238-138) and its complement w836 (nucleotide no. 5189-91) and c988 (nucleotide no. 4359-4210) and its complement c820 (nucleotide no. 4201-4356). The alkylation site identification and the assessment of the relative selectivity among the available sites were obtained by thermally-induced strand cleavage of the singly 5'end-labeled duplex DNA after exposure to the agents. Following treatment of the end-labeled duplex DNA with a range of agent concentrations, the unbound agent was removed by EtOH precipitation of the DNA. Redissolution of the DNA in aqueous buffer, thermolysis (100° C., 30 minutes) to induce strand cleavage at the sites of DNA alkylation, denaturing high resolution polyacrylamide gel electrophoresis (PAGE) adjacent to Sanger dideoxynucleotide sequencing standards, and autoradiography led to identification of the DNA cleavage and alkylation sites. The full details of this procedure have been disclosed and discussed elsewhere (10). The DNA alkylation reaction selectivities observed under the incubation conditions of 25° C. (24 hours) for the agents detailed herein have proven identical to the alkylation selectivities observed with shorter or extended reaction periods or when the reactions were conducted at different temperatures (37 or 4° C., 0.5-7 days). As discussed below, the rates and efficiencies but not final relative efficiencies of DNA alkylation were altered by changing the reaction temperatures.
# [3] = tested on: w794 DNA (SV40 DNA fragment, 144 bp); assay: DNA alkylation, thermally-induced strand cleavage of w794 DNA; type: biochemical; conditions: for selectivity and efficiency of DNA alkylation, natural enantiomers compared: 25° C., 24 hours, 254 vs 2, 266 vs 1; for concentration of detectable DNA alkylation, natural enantiomers: w794, 25° C., 24 hours (FIG. 17); for concentration of detectable DNA alkylation, unnatural enantiomers: 72 hours (FIG. 13)
# Procedure: FIG. 13 illustrates thermally-induced strand cleavage of double-stranded DNA (SV40 DNA fragment, 144 bp, nucleotide no. 5238-138, clone w794) after 72 hours incubation of agent-DNA at 37° C. followed by removal of unbound agent and 30 minutes incubation at 100° C.; 8% denaturing PAGE and autoradiography. Lane 1, control DNA; lanes 2-4, (-)-MCBI-TMI (254, 1×10^-5 to 1×10^-7 M); lanes 5-7, (-)-duocarmycin SA (2, 1×10^-5 to 1×10^-7 M); lanes 8-11, Sanger G, C, A and T reactions; lanes 12-14, (-)-CC-1065 (1, 1×10^-5 to 1×10^-7 M); lanes 15-17, (-)-MCBI-CDPI2 (266, 1×10^-5 to 1×10^-7 M); lanes 18-20, (-)-MCBI-CDPI1 (262, 1×10^-5 to 1×10^-7 M); lanes 21-23 (-)-MCBI-indole2 (258, 1×10^-5 to 1×10^-7 M).
# As indicated, the DNA-agent incubation was conducted at 37° C. for 24 or 48 hours, followed by removal of unbound agent and 30 minutes incubation at 100° C.; 8% denaturing PAGE and autoradiography.
# FIG. 17 illustrates thermally-induced strand cleavage of double-stranded DNA (SV40 DNA fragment, 144 bp, nucleotide no. 5238-138, clone w794) after 24 hours incubation of agent-DNA at 25° C. followed by removal of unbound agent and 30 minutes incubation at 100° C; 8% denaturing PAGE and autoradiography. Lane 1, control DNA; lanes 2-4, (+)-duocarmycin SA (2, 1×10^-5 to 1×10^-7 M); lanes 5-7, (+)-MCBI-TMI (254, 1×10^-5 to 1×10^-7 M); lanes 8-11, Sanger G, C, A and T reactions; lanes 12-14, (+)-CC-1065 (1, 1×10^-5 to 1×10^-7 M); lanes 15-17, (+)-MCBI-indole2 (258, 1×10^-5 to 1×10^-7 M); lanes 18-20, (+)-MCBI-CDPI2 (266, 1×10^-5 to 1×10^-7 M).
# as §1
# [4] = tested on: w794 5'-AATTA high affinity site; assay: Relative rate of w794 alkylation at the 5'-AATTA high-affinity site; type: biochemical, SV40; conditions: 10^-6 M; for relative rate of DNA alkylation k(254):k(CBI-TMI):k(2): 4° C., 0-48 hours
# Procedure: FIG. 15 illustrates a plot of percent integrated optical density (% IOD) versus time established through autoradiography of 5'-^32 P and labeled DNA and used to monitor the relative rate of w794 alkylation at the 5'-AATTA high-affinity site for 1, 254, 258, (+)-CBI-TMI and (+)-DSA-indole2.
# Representative of this difficulty in detecting distinguishing relative rates for the three classes of agents, a similar rate comparison of (+)-DSA-indole2 and (+)-MCBI-indole2 (258) conducted at 25° C. […] In sharp contrast, all three kinetically alkylate DNA much faster than the corresponding CPI-based agent (10-50×) where the distinctions are much more pronounced and easily experimentally distinguished.
# [5] = Solvolysis reactivity (UV), aqueous buffer-CH3OH; type: physicochemical; conditions: pH 7, 1:1 H2O-CH3OH
# [6] = Solvolysis reactivity (UV), aqueous buffer-CH3OH; type: physicochemical
# Procedure: The solvolysis was followed spectrophotometrically by UV with the disappearance of the long-wavelength absorption band of the MCBI chromophore ([…]) and with the appearance of a short-wavelength absorption band (266 nm) attributable to seco-N-BOC-MCBI (FIG. 9).
# N-BOC-MCBI (238, 0.1 mg) was dissolved in CH3 OH (1.5 mL) and mixed with pH 3 aqueous buffer (1.5 mL). The buffer contained 4:1:20 (v:v:v) 0.1 M citric acid, 0.2 M Na2 HPO4, and H2 O, respectively. The solvolysis solution was sealed and kept at 25° C. protected from light. The UV spectrum was measured at regular intervals every 2 hours during the first day, every 12 hours for another week, and every 24 hours for an additional week. The decrease in the long-wavelength absorption at 324 nm and the increase in the short-wavelength absorption at 266 nm were monitored, FIG. 1.
# Similarly, MCBI (240, 0.1 mg) was dissolved in CH3 OH (1.5 mL) and mixed with […] (1.5 mL). The solvolysis solution was sealed and stirred at 25° C. in the dark. The UV spectrum was recorded every 24 hours for two months. The decrease in the long-wavelength absorption at 340 nm and the increase in absorption at 268 nm were monitored, FIG. 1.
# [7] = tested on: L1210; assay: In vitro cytotoxic activity; type: cell-based
compound,measurement,setting,value
CC(C)(C)OC(=O)N1C[C@H]2C[C@@]23C1=CC(=O)c1ccccc13 [(+)-N-BOC-CBI],"relative efficiency of DNA alkylation, natural/unnatural enantiomer (earlier agent)",[1]; (+)-N-BOC-CBI/ent-(-)-N-BOC-CBI,5-10 ×
COc1cc2cc(C(=O)N3C[C@@H]4C[C@]45C3=CC(=O)c3ccccc35)[nH]c2c(OC)c1OC [(-)-CBI-TMI],DNA alkylation distinction between (-)-CBI-TMI and ent-(-)-duocarmycin SA,[1]; prior comparison,10 ×
"COC(=O)c1cc2c([nH]1)C(=O)C=C1N(C(=O)c3cc4cc(OC)c(OC)c(OC)c4[nH]3)CC3CC123 (single isomer, unassigned; (+)) [(+)-duocarmycin SA, reference compound]","AT-rich alkylation selectivity, size of site, natural enantiomers",[2],3.5 base-pair
same,"selectivity and efficiency of DNA alkylation, natural enantiomers compared",[3],indistinguishable
same,"concentration of detectable DNA alkylation, natural enantiomers",[3],10^-6 to 10^-7 M
same,"concentration of detectable DNA alkylation, unnatural enantiomers","[3]; w794, 37° C.",10^-5 M
same,relative rate of DNA alkylation k(254):k(CBI-TMI):k(2),[4],0.9
COc1cc2cc(C(=O)N3C[C@H]4C[C@@]45C3=CC(=O)c3ccccc35)[nH]c2c(OC)c1OC [(+)-CBI-TMI],relative rate of DNA alkylation k(254):k(CBI-TMI):k(2),[4],1.0
"COc1ccc2c(c1)C13CC1CN(C(=O)OC(C)(C)C)C3=CC2=O (stereo not drawn) [Compound 238, N-(tert-Butyloxycarbonyl)-7-methoxy-1,2,9,9a-tetrahydrocyclopropa[c]benz[e]indol-4-one]",alkylation selectivity of N-BOC-MCBI,"[3]; both enantiomers, two base-pair AT-rich selectivity",5'-AA>5'-TA
same,DNA alkylation efficiency relative to 257-266,"[3]; fold less efficient, both enantiomers",10^4 ×
same,"concentration of detectable DNA alkylation, two enantiomers of N-BOC-MCBI","[3]; w794, 37° C., 24-48 hours (FIG. 16)",10^-2 to 10^-3 M
same,evidence of solvolysis at pH 7,[5],did not show evidence of solvolysis
same,acceleration of rate of solvolysis by C7 methoxy group vs. corresponding CBI agent,"[6]; acid-catalyzed solvolysis, pH 3",1.6 ×
same,half-life relative to parent agent N-BOC-CBI (4),[6]; pH 3,0.6 times
same,solvolysis rate constant k,"[6]; pH 3, 50% CH3OH-buffer, 25° C.",2.41e-06 s⁻¹
same,half-life,"[6]; pH 3, 50% CH3OH-buffer, 25° C., read-out: solvolysis half-life t1/2 (converted)",80 h
COc1ccc2c(c1)[C@@]13C[C@@H]1CN(C(=O)c1cc4cc(OC)c(OC)c(OC)c4[nH]1)C3=CC2=O [(+)-MCBI-TMI],cytotoxic potency of natural enantiomer relative to unnatural enantiomer,"[7]; fold, natural more potent than unnatural",50 ×
same,"selectivity and efficiency of DNA alkylation, natural enantiomers compared",[3],indistinguishable
same,"concentration of detectable DNA alkylation, natural enantiomers",[3],10^-6 to 10^-7 M
same,relative rate of DNA alkylation k(254):k(CBI-TMI):k(2),[4],1.8
COc1ccc2c(c1)C13CC1CN(C(=O)c1cc4cc(OC)c(OC)c(OC)c4[nH]1)C3=CC2=O (stereo not drawn) [Compound 254],enantiomer distinction (in words),"[7]; natural vs unnatural enantiomer, listed as MCBI-TMI",analogous distinctions but somewhat smaller than those observed with CBI-TMI
same,"AT-rich alkylation selectivity, size of site, natural enantiomers",[2],3.5 base-pair
same,"concentration of detectable DNA alkylation, unnatural enantiomers","[3]; w794, 37° C.",10^-5 M
COC(=O)c1cc2c([nH]1)C(=O)C=C1N(C(=O)c3cc4cc(NC(=O)c5cc6ccccc6[nH]5)ccc4[nH]3)C[C@H]3C[C@]123 [(+)-DSA-indole2],relative rate k(DSA-indole2)/k(MCBI-indole2),"[4]; 25° C., 0-24 hours",1.05
